This note sets out measurements from patent US8551996B2, “Compounds, compositions, methods of synthesis, and methods of treatment” (Emory University, priority 2009, dated 2013).

This assay addresses T1, CRF-1 receptor (Homo sapiens, UniProt P34998).
T1 construct: expressed in transfected cells; host or cells: HEK293T/17
T1 sequence (P34998 24-415): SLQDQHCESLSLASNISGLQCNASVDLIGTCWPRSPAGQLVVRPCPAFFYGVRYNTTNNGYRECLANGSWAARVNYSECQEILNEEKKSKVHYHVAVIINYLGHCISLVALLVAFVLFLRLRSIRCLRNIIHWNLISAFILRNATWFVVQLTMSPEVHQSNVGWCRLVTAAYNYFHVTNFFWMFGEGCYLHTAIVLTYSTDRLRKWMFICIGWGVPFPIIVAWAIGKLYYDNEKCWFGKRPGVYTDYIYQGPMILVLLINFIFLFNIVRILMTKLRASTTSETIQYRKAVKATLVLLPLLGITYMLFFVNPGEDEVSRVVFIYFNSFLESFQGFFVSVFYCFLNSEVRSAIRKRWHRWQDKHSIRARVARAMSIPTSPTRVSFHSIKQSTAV
Kind of assay: CRF-1 receptor competitive binding vs. [125I]sauvagine. Particulars: for Ki: transfected HEK293T/17 cells expressing the CRF-1 receptor, radioligand [125I]sauvagine, read-out: CRF-1 Receptor Binding Affinities (vs. [125I] Sauvagine) Ki; for affinity for the CRF-1 receptor (in words): vs. [125I]sauvagine, only slightly reduced from that found for R121919. An excerpt: Pyrido[2,3-b]pyrazin-2-ones of type VI (Table 1) were synthesized according to the procedure reported by Dzierba, et al., (J. Med. Chem. 2004, 47, 5783-5790) as shown in Scheme 21.

As for `CCCCN(CC)c1cc(C)nc2c1NC(=O)CN2c1ccc(Br)cc1C` [Compound 188, 8-(Butylethylamino)-4-(2-methyl-4-bromophenyl)-6-methyl-3,4-dihydro-1H-pyrido[2,3-b]pyrazin-2-one], the Ki is 5.7 ± 0.3 nM and the “affinity for the CRF-1 receptor (in words)” value was “high affinity”.
For `CCCCN(CC)c1cc(C)nc2c1NC(=O)CN2c1ccc(C)cc1Br` [Compound 185, 4-(2-Bromo-4-methylphenyl)-8-(butylethylamino)-6-methyl-3,4-dihydra-1H-pyrido[2,3-b]pyrazin-2-one] the same measures were 6.2 ± 1.4 nM and “high affinity”.
As to `CCCCN(CC)c1cc(C)nc2c1NC(=O)CN2c1ccc(C)cc1C` [Compound 191, 8-(Butylethylamino)-4-(2,4-dimethylphenyl)-6-methyl-3,4-dihydro-1H-pyrido[2,3-b]pyrazin-2-one], the inhibition constant (Ki) turned out to be 9.1 nM and the “affinity for the CRF-1 receptor (in words)” value is reported as “high affinity”.

What is called Ki is the equilibrium dissociation constant of an inhibitor or competing ligand from its target.
